Drawing on patent US20040176431A1, “Antiproliferative 2-(sulfo-phenyl)-aminothiazole derivatives and pharmaceutical compositions, and methods for their use” (Pfizer, Inc., priority 2003, published 2004), this text covers IC50, IC90 and Ki for 13 compounds.

Where a name gives a salt, the structure may show the parent alone.

The test system of one experiment is HCT-116 cells. In words: Inhibition of cell growth (MTT tetrazolium salt assay). The conditions noted are these: Homo sapiens; for IC50: read-out: HCT116 IC50; for IC90: read-out: HCT116 IC90. It is filed as cell-based. On the procedure: Inhibition of cell growth was measured using the tetrazolium salt assay, which is based on the ability of viable cells to reduce 3-(4,5-dimethylthiazol-2-yl)-2,5-[2H]-diphenyltetrazolium bromide (MTT) to formazan (Mosmann, J. Immunol. Meth., 65, 55-63 (1983)). The water-insoluble purple formazan product was then detected spectrophotometrically. HCT-116 cells were grown in 96-well plates. Cells were plated in the appropriate medium at a volume of 135 μl/well in either McCoy's 5A Medium. Plates were incubated for four hours before addition of inhibitor compounds. Different concentrations of inhibitor compounds were added in 0.5% (v/v) dimethylsulfoxide (15 μL/well), and cells were incubated at 37° C. (5% CO2) for four to six days (depending on cell type). At the end of the incubation, MTT was added to a final concentration of 0.2 mg/mL, and cells were incubated for 4 hours more at 37° C. After centrifugation of the plates and removal of medium, the absorbance of the formazan (solubilized in dimethylsulfoxide) was measured at 540 nm. […] All results were compared to control cells treated only with 0.5% (v/v) dimethylsulfoxide.
(Tetrazolium assays rely on reduction of a dye to a coloured formazan, in cell work by metabolically active cells.)

For another experiment, the target named is T1, CDK4/cyclin D3 (Homo sapiens, UniProt P11802).
T1 construct: made in house; host or cells: insect cells (baculovirus co-infection)
T1 sequence (P11802 whole entry): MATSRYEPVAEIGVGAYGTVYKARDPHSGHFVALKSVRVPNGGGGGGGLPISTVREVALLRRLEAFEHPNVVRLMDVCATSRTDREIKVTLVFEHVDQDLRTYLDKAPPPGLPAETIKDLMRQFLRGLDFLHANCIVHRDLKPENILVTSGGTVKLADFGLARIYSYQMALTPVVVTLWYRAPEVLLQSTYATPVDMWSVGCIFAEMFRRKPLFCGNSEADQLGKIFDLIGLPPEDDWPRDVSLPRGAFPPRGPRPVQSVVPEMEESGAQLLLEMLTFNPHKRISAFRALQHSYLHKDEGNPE
T1 sequence (P30281 1-264 partner limits assumed): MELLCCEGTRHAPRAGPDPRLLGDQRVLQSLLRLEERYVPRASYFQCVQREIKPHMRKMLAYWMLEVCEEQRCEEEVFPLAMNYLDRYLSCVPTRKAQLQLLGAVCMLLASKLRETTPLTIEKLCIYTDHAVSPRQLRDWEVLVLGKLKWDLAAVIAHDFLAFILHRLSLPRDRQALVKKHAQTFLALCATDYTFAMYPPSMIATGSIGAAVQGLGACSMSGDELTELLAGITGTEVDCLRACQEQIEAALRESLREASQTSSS
The experiment can be described thus: Inhibition of CDK4/Cyclin D retinoblastoma kinase activity. Type of experiment: biochemical. The conditions noted are these: apparent Ki, Rb fragment substrate. In short, it runs like this: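 Apparent Ki derived by fitting activity at varied inhibitor concentrations to competitive (or competitive tight-binding) inhibition equations, background without enzyme subtracted. Radiometric filter-binding read-out of Rb(386-928) phosphorylation by 5 nM CDK4/cyclin D3(1-264); 25 μM ATP, pH 7.4, 2% DMSO, 30° C., 20 min, extended to 60 min for tight binders.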

The next experiment has as its target T2, CDK2/cyclin A (Homo sapiens, UniProt P24941).
T2 construct: made in house; host or cells: CDK2: insect cells (baculovirus); cyclin A: E. coli, then limited proteolysis
The experiment can be described thus: Inhibition of CDK2/Cyclin A retinoblastoma kinase activity. The conditions noted are these: apparent Ki, Rb fragment substrate. It is filed as biochemical. Here is the method: Cyclin-dependent kinase activity was measured by quantifying the enzyme-catalyzed, time-dependent incorporation of radioactive phosphate from [^32P]ATP or [^33P]ATP into a protein substrate. Unless noted otherwise, assays were performed in 96-well plates in a total volume of 50 μL, in the presence of 10 mM HEPES (N-[2-hydroxyethyl]piperazine-N′-[2-ethanesulfonic acid]) (pH 7.4), 10 mM MgCl2, 25 μM adenosine triphosphate (ATP), 1 mg/mL ovalbumin, 5 μg/mL leupeptin, 1 mM dithiothreitol, 10 mM β-glycerophosphate, 0.1 mM sodium vanadate, 1 mM sodium fluoride, 2.5 mM ethylene glycol-bis(β-aminoethyl ether)-N,N,N′N′-tetraacetic acid (EGTA), 2% (v/v) dimethylsulfoxide, and 0.03-0.4 μCi [^32/33P]ATP per reaction. Reactions were initiated with enzyme, incubated at 30° C., and terminated after 20 minutes by the addition of ethylenediaminetetraacetic acid (EDTA) to 250 mM. The phosphorylated substrate was then captured on a nitrocellulose or phosphocellulose membrane using a 96-well filtration manifold, and unincorporated radioactivity was removed by repeated washing with 0.85% phosphoric acid. Radioactivity was quantified by exposing the dried membranes to a phosphorimager.
Inhibition was measured relative to control wells that contained all reaction components including 2% (v/v) DMSO but no compound, after subtraction of background radioactivity measured in the absence of enzyme. Apparent Ki values of discrete compounds were measured by assaying enzyme activity in the presence of different inhibitor compound concentrations and subtracting the background radioactivity measured in the absence of enzyme. The kinetic parameters (kcat, Km for ATP) were measured for each enzyme under the usual assay conditions by determining the dependence of initial rates on ATP concentration. Inhibition data were fit to an equation for competitive inhibition using Kaleidagraph (Synergy Software), or were fit to an equation for competitive tight-binding inhibition using the software KineTic (BioKin, Ltd.).
CDK2 was purified using published methodology (Rosenblatt et al., J. Mol. Biol., 230, 1317-1319 (1993)) from insect cells that had been infected with a baculovirus expression vector. Cyclin A was purified from E. coli cells expressing full-length recombinant cyclin A, and a truncated cyclin A construct was generated by limited proteolysis and purified as described previously (Jeffrey et al., Nature, 376, 313-320 (1995)). A complex of CDK2 and proteolyzed cyclin A was prepared and purified by gel filtration. The substrate for this assay was the same Rb substrate fragment used for the CDK4 assays, and the methodology of the CDK2/delta cyclin A and the CDK4/delta cyclin D3 assays was essentially the same, except that CDK2 was present at 10 nM or 19 nM. The duration of the assay was 60 or 75 minutes, during which the time-dependence of product formation was linear and initial rate conditions were met.

In the case of `Nc1nc(Nc2ccc(S(=O)(=O)NCCc3cccs3)cc2)sc1C(=O)c1c(F)cccc1F` [A(23), 4-[4-Amino-5-(2,6-difluoro-benzoyl)-thiazol-2-ylamino]-N-(2-thiophen-2-yl-ethyl)-benzenesulfonamide], in the experiment with HCT-116 cells, the IC50 was found to be 440 nM. Besides, the concentration for an effect of 90% (IC90) in the experiment with HCT-116 cells was 1200 nM. Besides, the figures for the Ki on CDK4/cyclin D3 and at CDK2/cyclin A were 17 nM and 13 nM, respectively.
Taken in the same sequence, the figures for `Nc1nc(Nc2ccc(S(=O)(=O)NCCc3ccccn3)cc2)sc1C(=O)c1c(F)cccc1F` [A(24), 4-[4-Amino-5-(2,6-difluoro-benzoyl)-thiazol-2-ylamino]-N-(2-pyridin-2-yl-ethyl)-benzenesulfonamide] were 1200 nM, 2600 nM, 18 nM and 5 nM.
Taken in the same sequence, the figures for `Nc1nc(Nc2ccc(S(=O)(=O)NCCCN3CCCC3=O)cc2)sc1C(=O)c1c(F)cccc1F` [A(25), 4-[4-Amino-5-(2,6-difluoro-benzoyl)-thiazol-2-ylamino]-N-[3-(2-oxo-pyrrolidin-1-yl)-propyl]-benzenesulfonamide] were 3400 nM, 5000 nM, 16 nM and 4.1 nM.
For `CCN(CC)CCCCNS(=O)(=O)c1ccc(Nc2nc(N)c(C(=O)c3c(F)cccc3F)s2)cc1` [A(26), 4-[4-Amino-5-(2,6-difluoro-benzoyl)-thiazol-2-ylamino]-N-(4-diethylamino-butyl)-benzenesulfonamide], in the experiment on HCT-116 cells, the half-inhibitory concentration (IC50) turned out to be 850 nM and the concentration for an effect of 90% (IC90) came out at 3300 nM. In addition, the Ki on CDK4/cyclin D3 worked out at 3 nM. The Ki on CDK2/cyclin A worked out at 2.9 nM.
The like results for `Nc1nc(Nc2ccc(S(=O)(=O)NCc3cccs3)cc2)sc1C(=O)c1c(F)cccc1F` [A(27), 4-[4-Amino-5-(2,6-difluoro-benzoyl)-thiazol-2-ylamino]-N-thiophen-2-ylmethyl-benzenesulfonamide] were, in that order, 400 nM, 1000 nM, 57 nM and 4.6 nM.
In the case of `Cn1cncc1CNS(=O)(=O)c1ccc(Nc2nc(N)c(C(=O)c3c(F)cccc3F)s2)cc1` [A(38), 4-[4-Amino-5-(2,6-difluoro-benzoyl)-thiazol-2-ylamino]-N-(1-methyl-1H-imidazol-5-ylmethyl)-benzenesulfonamide Trifluoroacetic Acid Salt], the Ki on CDK4/cyclin D3 amounted to 3.9 nM; at CDK2/cyclin A it was 0.48 nM.
For `CS(=O)(=O)c1cccc(Nc2nc(N)c(C(=O)c3c(Cl)cccc3Cl)s2)c1` [AA(1), 4-Amino-5-(2,6-dichloro-benzoyl)-2-(3-methanesulfonyl-phenylamino)-thiazole], the Ki at CDK2/cyclin A was determined as 430 nM.
The same measure, in the same setting: next, `Nc1nc(Nc2ccc(S(=O)(=O)c3ccncc3)cc2)sc1C(=O)c1c(Cl)cccc1Cl` [AA(3), 4-Amino-5-(2,6-dichlorobenzoyl)-2-[4-(pyridine-4-sulfonyl)-phenylamino]-thiazole]: 190 nM.
On to `Nc1nc(Nc2ccc(S(=O)(=O)NCc3cc(Cl)ccc3Cl)cc2)sc1C(=O)c1c(F)cccc1F` [Example A(7), 4-[4-Amino-5-(2,6-difluoro-benzoyl)-thiazol-2-ylamino]-N-(2,5-dichloro-benzyl)-benzenesulfonamide], for which the Ki amounted to 62 nM at CDK4/cyclin D3 and 11 nM at CDK2/cyclin A.
As for `Nc1nc(Nc2ccc(Sc3ccccn3)cc2)sc1C(=O)c1c(Cl)cccc1Cl` [W(2), 4-Amino-5-(2,6-dichloro-benzoyl)-2-[4-(pyridin-2-ylthio)-phenylamino]-thiazole], the results for the Ki at CDK4/cyclin D3 and at CDK2/cyclin A were 190 nM and 500 nM, respectively.
Take `Nc1nc(Nc2ccc(S)cc2)sc1C(=O)c1c(Cl)cccc1Cl` [X(1), 4-Amino-5-(2,6-dichloro-benzoyl)-2-(4-mercapto-phenylamino)-thiazole]: the Ki on CDK2/cyclin A stood at 520 nM.
In the case of `Nc1nc(Nc2cccc(S)c2)sc1C(=O)c1c(Cl)cccc1Cl` [X(2)], the Ki at CDK2/cyclin A is 1600 nM.
On the same count and under the same terms, next, `C[S+]([O-])c1cccc(Nc2nc(N)c(C(=O)c3c(Cl)cccc3Cl)s2)c1` (stereo not shown) [Z(1), 4-Amino-5-(2,6-benzoyl)-2-(3-methanesulfinyl-phenylamino)-thiazole]: 450 nM.

As usually defined, the IC50 is the concentration needed to halve the response being measured. For orientation: IC90 means the concentration at which the effect reaches the 90% level.
